“Also recorded” adds a separate entry of the source.
Legend:
PH domain of Akt protein = target: T1, PH domain of Akt protein (Homo sapiens, UniProt P31749); test: Protein-lipid binding assay (PIP-strips) with PH domain of Akt protein; conditions: calcium 0, 0.05 or 0.1 mM
T1 construct: His6 (C); made in house; host or cells: E. coli BL21 (DE3), pET28a vector
Protocol: E. coli BL21 (DE3) cells were transfected with a vector containing the PH domain of Akt protein, and the cells were cultured in 50 Ml of LB medium supplemented with 50 μg/Ml of kanamycin. The culture was performed at 37° C. for 8 hours. Upon completion of the culture, the cells were transferred into a 25° C. agitation incubator. The cells were cultured until OD600 reached 0.6 to 1.0, and then 1 mM IPTG (isopropyl-β-D-1-thiogalactopyranoside) was added thereto. 18 hours after the addition of IPTG, centrifugation was performed at 7,000×g at 4° C. for 10 minutes to obtain cells. Sonication equilibrium buffer (150 mM NaCl, 50 mM Tris-HCl, pH 7.6) was added to the obtained cells. The cells added with the sonication equilibrium buffer were lysed by sonication. The PH domain of Akt protein was purified from the cell lysate by […] using nickel-nitrilotriacetic acid and HiLoad Superdex-200 column (GE Healthcare life science, USA). The purity of the purified protein was examined by SDS-PAGE (sodium dodecyl sulfate polyacrylamide gel electrophoresis).
Particularly, the analysis was performed by using membrane-immobilized lipid strips (PIP-strips, Echelon Biosciences Inc., USA). […]

[1] = target: T2, PH domain of the purified Akt protein (Homo sapiens, UniProt P31749); test: ITC of binding of PH domain of purified Akt protein to phospholipids; conditions: increase of the calcium concentration
T2 construct: His6 (C); made in house; host or cells: E. coli BL21 (DE3), pET28a vector
Protocol: (§1) Particularly, a protein solution was prepared by suspending a protein in 10 mM HEPES (pH 7.0). Phospholipid related ligand was titrated in the protein solution at 25° C. by using iTC200 micro calorimetry system (MicroCal Inc., USA), and the generated graph was corrected using Origin software (MicroCal Inc., USA). At this time, the phospholipid related ligand was prepared in the form of liposome by mixing POPC (1-palmitoyl-2-oleoyl-sn-glycero-3-phosphocholin) chloroform solution and POPS (1-palmitoyl-2-oleoyl-sn-glycero-3-phosphoserine), PI(3,4)P2 (1,2-dipalmotoyl-sn-glycero-3-phosphatidylinositol-3,4-[…]), PI(4,5)P2 (1,2-dipalmotoyl-sn-glycero-3-phosphatidylinositol-4,5-trisphosphate) or PI(3,4,5)P3 (1,2-dipalmotoyl-sn-glycero-3-phosphatidylinositol-3,4,5-trisphosphate) at the molar ratio of 80:20. The organic solvent was eliminated. The organic solvent was removed and a single layer lamellar was produced in HEPES (pH 7.0) using phospholipids.

[2] = Protein-lipid binding assay with PKCβ protein C2 domain, PI(4,5)P2; conditions: calcium 0, 0.05 or 0.1 mM
Protocol: (§2) Particularly, the analysis was performed by using membrane-immobilized lipid strips (PIP-strips, Echelon Biosciences Inc., USA). At this time, the membrane was loaded with LPA (lysophosphatidic acid), LPC (lysophosphatidylcholine), PI (phosphatidylinositol), PE (phosphatidylethanolamine), PC (phosphatidylcholine), S1P (sphingosine 1-phosphate), PA (phosphatidic acid) or PS (phosphatidylserine) at the concentration of 100 pmol, to which calcium was added at the concentration of 0, 0.05 or 0.1 mM. Each membrane was pre-treated with a blocking buffer [fatty acid free 3% BSA (bovine serum albumin), 0.1% (v/v) Tween 20 and TBS (Tris-buffered saline), pH 7.5] at room temperature for 30 minutes. The PH domain of Akt protein purified in Example <7-1> was suspended in a blocking buffer at the concentration of 3.5 mg/Ml. The suspended protein was reacted with the membrane-immobilized lipid strip at room temperature for 30 minutes. The protein bound with lipid was identified by using the PH domain antibody.
(§3) To investigate whether or not the binding of the PKCβ protein C2 domain purified in Example <8-1> to PI(4,5)P2 or PI(3,4,5)P3 was inhibited by calcium, protein lipid binding assay and ITC were performed. […]

[3] = Protein-lipid binding assay with PKCβ protein C2 domain, PI(3,4,5)P3; conditions: calcium 0, 0.05 or 0.1 mM
Protocol: as §2, §3

[4] = ITC of PKCβ protein C2 domain with PI(3,4,5)P3 liposome; assay type: binding
Protocol: as §1
In the meantime, in ITC, the phospholipid related ligand was prepared in the form of liposome by mixing POPC chloroform solution and PI(3,4,5)P3 at the molar ratio of 80:20. Then, ITC was performed by the same manner under the same conditions as described in Example <7-3> except that the PKCβ protein C2 domain or D187/193A, the C2 domain mutant, was used.

CHO cells = test: Migration of mCherry-tagged PH or C2 domain to the cell membrane, fluorescence microscopy; assay type: cell-based
Text: First, the PH domain of Akt1 protein or C2 domain of PKCβ protein was obtained by PCR using the primers consisting of the nucleotide sequences represented by […]. The obtained PCR product was cloned in pmCherry-C1 vector (Takara Clontech, Japan) by the conventional cloning method. CHO cells were transfected with the prepared vector by using lipofectamine according to the manufacturer's protocol. The transfected cells were selected by using blastidicin. Then, mCherry positive cells were confirmed by flow cytometry.
PMA at the concentration of 100 nM, ionomycin at the concentration of 10 μM or insulin at the concentration of 100 nM was added to the cells expressing the PH domain of Akt1 protein or the C2 domain of PKCβ protein and the location of the expressed protein was confirmed by fluorescence microscopy.

Akt protein [5] = test: Western blot of Akt activation in HepG2 cells transfected with C2-Akt fusion protein or wild type Akt and PI3K; assay type: cell-based, human; conditions: increase of calcium concentration (PMA 0, 10, 50 or 100 nM, ionomycin 20 μM, 1 hour)
Text: First, the C2 domain of PKCβ protein and Akt protein (SEQ. ID. NO: 15) were obtained by PCR using the primers consisting of the nucleotide sequences represented by SEQ. ID. NO: 9˜SEQ. ID. The obtained PCR product was cloned in pEGFP-C2 vector by the conventional cloning method, resulting in the construction of a vector expressing the C2 domain/Akt protein fusion protein (SEQ. ID. NO: 17) (C2-Akt fusion protein). At this time, as the control group, a vector expressing the wild type Akt protein containing the PH domain was prepared.
HepG2 cells were transfected with the vector expressing the C2-Akt fusion protein constructed above along with the vector expressing PI3K protein by using lipofectamine according to the manufacturer's protocol. The transfected cells were treated with PMA at the concentration of 0, 10, 50 or 100 nM ionomycin at the concentration of 20 μM, followed by reaction for 1 hour. Western blot analysis was performed with the cells above. […]

Akt protein [6] = test: Western blotting of Akt protein phosphorylation in insulin-treated HepG2 cells; assay type: cell-based, human; conditions: verapamil 0, 5, 10 or 100 nM, with or without insulin
Protocol: First, male C57BL/6 mice at 8 weeks were divided into the fasted group wherein the mice were fasted for 16 hours and the refed group wherein the mice were fasted for 16 hours and then fed for 4 hours. Each group was sub-divided into the high fat diet group (HFD) and the normal diet group (chow). The liver cells were extracted from the raised mice by the same manner and under the same conditions as described in Example 1. The extracted liver cells were lysed in a lysis buffer containing phosphatase (Sigma-Aldrich, USA) and protease inhibitor (Sigma-Aldrich, USA). Proteins extracted from 2 to 3 mg of the liver tissue were homogenized by using a tissue homogenizer (TissuLyser, Qiagen, USA) for 1.5 minutes at a frequency of 1/30 sec. The homogenized lysate was centrifuged at 12,000 rpm for 15 minutes and the supernatant was obtained. The amount of the extracted protein was quantified by using a protein assay kit (Bio-Rad Laboratories, USA), and at this time BSA was used as a standard sample. 3 mg of the protein was mixed with 6× loading buffer, followed by electrophoresis using 10% SDS-PAGE gel. The electrophoresed protein was transferred onto a polyvinylidene fluoride (PVDF) membrane by using a transfer buffer at 4° C. with 120 V for 1.5 hours. The PVDF membrane on which the protein was transferred was pretreated with a blocking buffer prepared by mixing 5% skim milk with TBS buffer (TBS-T, pH 7.6) supplemented with Tween 20 for 30 minutes, and the membrane was washed with TBS-T. The washed membrane was added with the antibody against Akt (Cell Signaling Technology, USA), Akt(T308) (Cell Signaling Technology, USA), Akt(S473) (Cell Signaling Technology, USA), FOXO3A (Cell Signaling Technology, USA), FOXO3A(S253) (Cell Signaling Technology, USA), GSK-3β (Cell Signaling Technology, USA) or GSK-3β(S9) (Cell Signaling Technology, USA) protein as a primary antibody, followed by reaction at 4° C. for 12 hours. At this time, the antibody against actin (Santa Cruz Biotechnology, USA) protein was used for the control group. Upon completion of the reaction, the secondary antibody corresponding to the primary antibody was added thereto, followed by reaction at room temperature for 30 minutes. The PVDF membrane was washed with TBS-T buffer three times. The washed PVDF membrane was added with ECL solution (Thermo Scientific, USA), followed by image observation.
To investigate the changes in insulin sensitivity when insulin was added to the fatty liver cell model constructed in vitro, the phosphorylations of those proteins that were involved in insulin signal transduction were examined. PA was added to the human HepG2 cells prepared in Example 3, followed by reaction for 24 hours. […]

[7] = system: cells having an increased intracellular calcium concentration; test: Calcium concentration in cells having an increased intracellular calcium concentration; assay type: cell-based; conditions: cells having an increased intracellular calcium concentration treated with verapamil

T1 sequence (P31749 1-144): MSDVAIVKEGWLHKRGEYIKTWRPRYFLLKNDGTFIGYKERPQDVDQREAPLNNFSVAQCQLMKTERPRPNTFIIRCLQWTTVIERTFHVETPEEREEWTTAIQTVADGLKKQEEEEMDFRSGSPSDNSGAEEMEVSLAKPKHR
T2 sequence (P31749 1-144): as above

[Ca+2] [calcium]
binding of PH domain of Akt protein to PI(3,4)P2 or PI(3,4,5)P3 (PH domain of Akt protein): inhibited
binding of PH domain of Akt protein to PI(3,4)P2, PI(4,5)P2, PI(3,4,5)P3 or PS [1]: inhibited

C2 domain of PKCβ protein: C2 domain of PKCβ protein (SEQ. ID. NO: 14)
binding to PI(4,5)P2 [2]: strongly bound; also recorded: promoted
binding to PI(3,4,5)P3 [3]: strongly bound; also recorded: promoted
binding to PI(3,4,5)P3 ([4]; absence of calcium): not induced
binding to PI(3,4,5)P3 ([4]; increased calcium concentration): combined
binding to PI(3,4,5)P3 ([4]; increased calcium concentration, listed as PKCβ protein C2 domain): strongly bound
migration to the cell membrane (CHO cells; addition of insulin 100 nM): did not migrate
migration to the cell membrane (CHO cells; increased intracellular calcium concentration (PMA 100 nM, ionomycin 10 μM)): migrated; also recorded: promoted

wild type Akt protein: wild type Akt protein containing the PH domain, control
Akt protein activation by PI3K (Akt protein [5]): inhibited

COc1ccc(CCN(C)CCCC(C#N)(c2ccc(OC)c(OC)c2)C(C)C)cc1OC (stereo not drawn) [verapamil]
phosphorylation of Akt protein (Akt protein [6]): increased
increased calcium concentration [7]: inhibited; also recorded: reduced

— patent publication US11726082B2, “Screening method of drug candidates for treating disease using interaction between calcium and phosphatidylinositol phosphate” (Gachon University of Industry—Academic Cooperation …, priority 2017, dated 2023)
